Measured values published in PMC12406203 (Journal of Medicinal Chemistry, 2025).
“And” between values parts separate entries of the source, which are not always exact repeats. Equal values may be shown once.

Legend:
[1] = test system: ABL1(E255K)-phosphorylated
hBChE in SH-SY5Y cells = biological target: T1, hBChE in SH-SY5Y cells (Homo sapiens, UniProt P06276); experiment: hBChE inhibition assay in SH-SY5Y cells; format: cell-based; conditions: 10 and 1 μM; compared with control ethopropazine
T1 construct: endogenous in cells; host or cells: SH-SY5Y human neuroblastoma cells
Protocol: hBChE activity in live whole SH-SY5Y cells was measured by the modified procedure of Onder and colleagues. Briefly, after centrifugation, the complete medium was removed and cells were suspended in PBS warmed to 37 °C. 50 μL of this suspension was added to a 96-well plate so that each well contained approximately 360,000 cells. 81 μL of 0.5 mM 5,5′-dithiobis (2-nitrobenzoic acid) in 0.1 M potassium phosphate buffer (pH 7.0) was added, followed by 2 μL of DMSO solutions of compounds 94, 95, or ethopropazine (positive control). The reaction was initiated by the addition of 67 μL of 1 mM acetylthiocholine. The total reagent volume in each well was 200 μL. The microplate was covered with a lid to minimize evaporation while absorbance at 412 nm was recorded over a period of 120 min with a 30 s interval on a Tecan Spark microplate reader (Tecan Austria GmbH, Salzburg, Austria) set to 24 °C. Autohydrolysis rates of butyrylthiocholine were measured in wells that contained all reagents + PBS with no cells. The residual activity of hBChE was then calculated by the protocol described above.

Log D determination = format: physicochemical; conditions: pH 7.4, n-octanol/PBS
Protocol: Calibration curves for phosphate-buffered saline (PBS) (pH = 7.4) and octanol were prepared (0.05–5 μM). The buffer and n-octanol phases were shaken, using phosphate buffer (pH = 7.4). The phase ratios of buffer to n-octanol were 1:1 (0.8 mL octanol:0.8 mL PBS) and 1:3 (0.4 mL octanol:1.2 mL PBS). Octanol was then pipetted into a HPLC vial, followed by the addition of 1.6 μL of a 10 mM stock DMSO solution and the buffer. The vial was mixed with a vortex mixer and shaken for 3 h in the dark at 23 °C. Subsequently, the aqueous and organic phases were sampled with a syringe into a new HPLC vial, and the samples were analyzed using UHPLC/DAD.

LPS-treated mice = experiment: Morris water maze task, LPS model of neuroinflammation; format: in vivo; conditions: 10 mg/kg i.p.; for escape latency, acquisition phase (days 1–6) of MWM: from day 2 (94) or day 3 (95) to day 6, vs LPS alone
Protocol: The compounds were administered for 10 consecutive days, and on the last 6 days of their administration, LPS was also administered intraperitoneally 5 h before the test compounds. On these 6 days, the acquisition phase of the MWM task was performed. One day later, the retention, drug-off trial of the MWM task was carried out.
In the LPS model adult male C57BL/6J mice (Animal Breeding Farm of the Faculty of Pharmacy, Jagiellonian University Medical College) of similar weight and age were used. […] The mice had unlimited access to food and water prior to the experiment. Specified conditions for the maintenance of mice were ensured throughout the experiment, including tree bedding (Transwior, Poland) and cage enrichment (tunnels, nesting material, wooden igloos, etc.). For behavioral tests, the mice were selected randomly; each group consisted of 7–10 mice. […] After in vivo tests, the animals were immediately euthanized, and their tissues were collected and stored for further ex vivo testing.
LPS (Lipopolysaccharide from Escherichia coli O111:B4, Sigma-Aldrich, Poland) was used to induce neuroinflammation in mice. […] They were administered intraperitoneally (i.p.) 60 min before the acquisition trial of the PA, NOR, and MWM tasks. […] In the rotarod, locomotor activity, and MWM tests, only one dose effective in the scopolamine model of amnesia was evaluated.
The Morris water maze is a circular, plastic, and gray-painted pool (120 cm in diameter and 60 cm in height), filled with water (up to about 48 cm below the edge to prevent an animal from jumping out), maintained at 23 ± 1 °C. The pool was divided into four equal quadrants (compass locations: NE, NW, SE, SW) by a computerized video tracking system (SMART, ver. 3.0; Panlab, Spain). An escape platform (11 cm in diameter and 47 cm in height) at a fixed location (the center of the NW quadrant, i.e., the target quadrant) was made of transparent Plexiglas, being invisible to the swimming animal, and was immersed 1 cm under the surface of water. The maze was lighted with an intensity of 45 lx. […] The time taken to reach the hidden platform (escape latency) on days 1–6 was recorded for each mouse and analyzed. Each animal was released from a different starting point and was allowed to swim for 60 s. […] On the seventh day (a drug-off trial conducted 24 h after the last training trial), the platform was removed from the pool, and a probe trial was performed (without drug treatmentassessment of memory retention).

hAChE = hAChE (Homo sapiens, UniProt P22303); conditions: for AChE inhibition: at a concentration of 100 μM; for hAChE RA at 100 μM: residual activity at 100 μM, mean ± SD, one experiment in triplicate
Protocol: The inhibitory potencies of the compounds against the ChEs were determined using the method of Ellman. […] The final content of DMSO was always 1% [v/v]. […] The initial velocities in the presence (v i ) and absence (v 0) of the test compounds were calculated. The inhibitory potencies were expressed as the residual activities, according to RA = (v i – b)/(v 0 – b), where b is the blank value using phosphate buffer without ChEs. For IC50 determinations, at least seven different concentrations for each compound were used. The IC50 values were obtained by plotting the residual ChE activities against the applied inhibitor concentrations, with the experimental data fitted to a four-parameter logistic function (GraphPad Prism 10.0).

in vitro = conditions: PAMPA, pH 7.4
human p38α MAPK = human p38α MAPK (Homo sapiens, UniProt Q16539); experiment: biochemical
Protocol: The inhibitory activities against human p38α MAPK were evaluated using the commercially available ADP-Glo Kinase Assay (Promega, Inc., USA).
For the reference sample, 1% [v/v] DMSO replaced the inhibitor solution. […] The enzyme reaction was started with the addition of the enzyme solution. The DMSO concentration in the test solution was maintained at 1% [v/v]. The plate was incubated for 60 min. Then 5 μL of ADP-Glo reagent was added, followed by a 40 min incubation at room temperature. […] All incubations were performed at room temperature. The RA and IC50 values were calculated as described above (ChEs inhibitory potency).

[2] = Pharmacokinetic study in mice; conditions: for Cmax / MRT / Tmax / k el / Kp / AUC / AUC(0-t) / CL/F / Vd/F: male, CD-1, mouse, ip, 10 mg/kg; for Kp: brain/serum
Protocol: In this study, male CD-1 mice weighing 27–34 g housed in conditions of constant temperature with a 12:12 h light-dark cycle with free access to food and water were used. Both tested and reference compounds were suspended in 1% Tween in water for injection (Polpharma, Poland) and administered intraperitoneally (i.p.). The mice were sacrificed by decapitation under isoflurane anesthesia at different time points following compound administration. Brains were harvested at the same time points. Blood was allowed to clot at room temperature for 20 min, and serum was separated by centrifugation at 8 000g (Eppendorf MiniSpin centrifuge, Germany) for 10 min. All samples were stored at −80 °C until analysis.
The analytical workflow employed a Sciex QTRAP 4500 triple quadrupole mass spectrometer interfaced with an Exion LC AC HPLC system (Danaher Corporation, USA). Chromatographic separation was achieved on an XBridge C18 column (3 × 50 mm, 5 μm; Waters, USA), utilizing a mobile phase composed of acetonitrile and water both containing 0.1% formic acid. The column temperature was maintained at 40 °C, and a gradient elution protocol (Table S10) was implemented to ensure optimal analyte resolution and retention times. Mass spectrometric detection was conducted in unit resolution mode, with ion transitions specified in Table S11. […] Valsartan served as the internal standard and was monitored at m/z 436 → 207 (collision energy = 42 eV). Positive electrospray ionization (ESI+) was employed to enhance detection sensitivity. Ion path parameters (Table S11) were optimized via direct infusion of analyte solutions (7 μL/min) using a syringe pump. The optimized source conditions included an ion spray voltage of 5500 V, a source temperature of 450 °C, curtain gas pressure at 20 psi, and medium collision gas pressure. […] No significant matrix effects or stability concerns were observed during routine sample analysis. Data acquisition and processing were carried out using Analyst software version 1.7.
Serial dilutions were performed to generate working solutions ranging from 0.01 to 20 μg/mL, corresponding to final calibration concentrations of 0.001–2 μg/mL. For calibration curve construction, 5 μL of each working solution was spiked into 45 μL of the relevant biological matrix (serum or brain homogenate) and vortexed for 10 s. Sample preparation involved protein precipitation, in a 1:3 (v/v) ratio, using acetonitrile containing 0.1% formic acid and the internal standard. The mixtures were agitated for 10 min using an IKA Vibrax VXR shaker (Germany), followed by centrifugation at 8000 × g for 5 min (Eppendorf miniSpin, Germany). The resulting supernatants were transferred to chromatographic vials for analysis.
Brain tissues were homogenized in distilled water at a 1:4 (w/v) ratio using an ULTRA-TURRAX T10 basic homogenizer (IKA, Germany). Aliquots of brain homogenate or serum (50 μL) were subjected to protein precipitation in a 1:3 (v/v) ratio with acetonitrile containing 0.1% formic acid and the internal standard. The mixtures were agitated for 10 min using an IKA Vibrax VXR shaker (Germany), followed by centrifugation at 8000 × g for 5 min (Eppendorf miniSpin, Germany). The resulting supernatants were directly transferred to chromatographic vials for analysis. In cases where analyte concentrations in serum exceeded 20 μg/mL, samples were diluted with blank matrix prior to the deproteinization step. The autosampler was maintained at 15 °C, and a 1 μL aliquot was injected onto the analytical column.
Pharmacokinetic parameters were estimated using the noncompartmental analysis (NCA). The maximum concentration (C max) and the time to reach maximum concentration (t max) in serum and brain were obtained directly from the concentration versus time data.

[3] = p38α MAPK IC50, IC50 expressed as concentration in ng/mL
[4] = p38α MAPK IC50 ± SEM, two independent experiments, each in triplicate

Sequence of human p38α MAPK (Q16539 whole entry): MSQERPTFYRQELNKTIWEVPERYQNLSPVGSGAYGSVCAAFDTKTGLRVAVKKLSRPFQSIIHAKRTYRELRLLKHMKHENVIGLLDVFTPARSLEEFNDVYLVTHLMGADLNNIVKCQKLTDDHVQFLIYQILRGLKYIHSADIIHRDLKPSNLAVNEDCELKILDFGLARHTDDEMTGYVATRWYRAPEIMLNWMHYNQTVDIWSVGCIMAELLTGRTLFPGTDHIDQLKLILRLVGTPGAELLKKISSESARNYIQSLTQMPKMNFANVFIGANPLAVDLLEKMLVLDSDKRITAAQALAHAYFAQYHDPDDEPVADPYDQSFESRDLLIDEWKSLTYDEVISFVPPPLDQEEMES
Sequence of hAChE (P22303 32-614): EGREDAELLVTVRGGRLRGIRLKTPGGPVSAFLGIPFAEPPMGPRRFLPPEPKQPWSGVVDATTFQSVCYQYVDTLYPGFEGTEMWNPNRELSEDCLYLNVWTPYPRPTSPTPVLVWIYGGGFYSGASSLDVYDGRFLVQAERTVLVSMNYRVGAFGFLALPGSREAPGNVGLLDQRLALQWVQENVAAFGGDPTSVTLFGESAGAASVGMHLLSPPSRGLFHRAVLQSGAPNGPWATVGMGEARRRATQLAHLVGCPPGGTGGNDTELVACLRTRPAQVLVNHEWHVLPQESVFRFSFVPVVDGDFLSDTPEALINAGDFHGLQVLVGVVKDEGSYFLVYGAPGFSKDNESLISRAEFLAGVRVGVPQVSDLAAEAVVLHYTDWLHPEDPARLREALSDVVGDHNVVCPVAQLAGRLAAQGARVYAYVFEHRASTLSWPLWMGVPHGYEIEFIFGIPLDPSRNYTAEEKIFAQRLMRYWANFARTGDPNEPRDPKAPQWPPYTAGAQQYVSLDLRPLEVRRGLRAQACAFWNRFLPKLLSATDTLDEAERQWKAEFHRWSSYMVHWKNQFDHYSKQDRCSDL
T1 sequence (P06276 29-602): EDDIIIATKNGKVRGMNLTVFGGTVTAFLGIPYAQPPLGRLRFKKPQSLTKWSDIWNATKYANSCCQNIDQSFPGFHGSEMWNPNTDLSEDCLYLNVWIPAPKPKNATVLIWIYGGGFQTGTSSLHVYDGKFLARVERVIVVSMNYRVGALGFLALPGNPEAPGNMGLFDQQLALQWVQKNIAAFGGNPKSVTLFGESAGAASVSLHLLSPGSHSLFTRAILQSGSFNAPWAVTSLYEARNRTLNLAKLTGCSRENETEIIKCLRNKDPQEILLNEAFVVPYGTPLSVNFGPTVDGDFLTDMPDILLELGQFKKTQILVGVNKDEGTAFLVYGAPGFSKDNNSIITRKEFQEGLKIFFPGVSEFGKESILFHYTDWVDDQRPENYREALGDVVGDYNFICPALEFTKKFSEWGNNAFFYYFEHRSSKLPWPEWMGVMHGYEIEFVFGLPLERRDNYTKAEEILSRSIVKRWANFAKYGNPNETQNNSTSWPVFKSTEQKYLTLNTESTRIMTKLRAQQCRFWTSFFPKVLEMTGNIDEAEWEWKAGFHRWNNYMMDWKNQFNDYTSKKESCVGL

CC(C)Cn1ncc2cc(Cc3ccc(F)cc3F)c(C(=O)NCCN(C)C)cc21 [Compound 94, 5-(2,4-Difluorobenzyl)-N-(2-(dimethylamino)ethyl)-1-isobutyl-1H-indazole-6-carboxamide]
RA @ 1000nM [1]: 96%
RA @ 10000nM [1]: 55%
RA @ 1000nM (ABL1-nonphosphorylated): 85%
RA @ 10000nM (ABL1-nonphosphorylated): 97%
RA @ 1000nM (ADCK3): 100%
RA @ 10000nM (ADCK3): 100%
RA @ 1000nM (AKT2): 89%
RA @ 10000nM (AKT2): 76%
RA @ 1000nM (CDK3): 100%
RA @ 10000nM (CDK3): 1.3%
RA @ 1000nM (CSF1R): 100%
RA @ 10000nM (CSF1R): 86%
RA @ 1000nM (DCAMKL1): 100%
RA @ 10000nM (DCAMKL1): 100%
RA @ 1000nM (EPHA2): 97%
RA @ 10000nM (EPHA2): 100%
RA @ 1000nM (IGF1R): 94%
RA @ 10000nM (IGF1R): 84%
RA @ 1000nM (KIT(D816V)): 94%
RA @ 10000nM (KIT(D816V)): 100%
RA @ 1000nM (LCK): 100%
RA @ 10000nM (LCK): 97%
RA @ 1000nM (MET): 96%
RA @ 10000nM (MET): 100%
RA @ 1000nM (MKNK2): 76%
RA @ 10000nM (MKNK2): 80%
RA @ 1000nM (MLK1): 100%
RA @ 10000nM (MLK1): 100%
RA @ 1000nM (p38β): 72%
RA @ 10000nM (p38β): 15%
RA @ 1000nM (PAK1): 96%
RA @ 10000nM (PAK1): 94%
RA @ 1000nM (PAK2): 100%
RA @ 10000nM (PAK2): 97%
RA @ 1000nM (PAK4): 97%
RA @ 10000nM (PAK4): 96%
RA @ 1000nM (PCTK1): 96%
RA @ 10000nM (PCTK1): 92%
RA @ 1000nM (PDGFRB): 100%
RA @ 10000nM (PDGFRB): 97%
RA @ 1000nM (PIK3C2B): 90%
RA @ 10000nM (PIK3C2B): 82%
RA @ 1000nM (PIM2): 100%
RA @ 10000nM (PIM2): 100%
RA @ 1000nM (RAF1): 100%
RA @ 10000nM (RAF1): 100%
RA @ 1000nM (SRPK3): 77%
RA @ 10000nM (SRPK3): 100%
RA @ 1000nM (TGFBR1): 100%
RA @ 10000nM (TGFBR1): 100%
RA @ 1000nM (TIE2): 100%
RA @ 10000nM (TIE2): 100%
hBChE inhibition in SH-SY5Y human neuroblastoma cell line (hBChE in SH-SY5Y cells): outperformed the control ethopropazine
measured log D at pH 7.4 (Log D determination): 2.13
escape latency, acquisition phase (days 1–6) of MWM (LPS-treated mice): statistically significant decrease in escape latency from day 2
AChE inhibition (hAChE): did not inhibit AChE
hAChE RA at 100 μM (hAChE): 69.0% and 69 ± 4%
Papp (in vitro): 10.4 ×10⁻⁶ cm/s
IC50 (human p38α MAPK; [3]): 376 nM
IC50 (human p38α MAPK; [4]): 377 ± 123 nM
elimination half-life in brain compared to serum ([2]; 10 mg/kg i.p., mice): over 2 fold
AUC0‑∞ ([2]; brain, 10 mg/kg i.p., mice): 50863.30 ng·min/mL(g)
AUC0–t ([2]; brain, 10 mg/kg i.p., mice): 48459.19 ng·min/mL(g)
t0.5λz ([2]; brain, 10 mg/kg i.p., mice): 210.94 min
Cmax ([2]; brain): 658 ng/g
MRT ([2]; brain): 102 min
Tmax ([2]; brain): 15 min
k el ([2]; brain): 5.5e-05 s⁻¹
Kp [2]: 1.58
AUC ([2]; serum): 536 ng·h/mL
AUC(0-t) ([2]; serum): 532 ng·h/mL
CL/F ([2]; serum): 310 mL/min/kg
Cmax ([2]; serum): 946 ng/mL
MRT ([2]; serum): 53.8 min
Tmax ([2]; serum): 5 min
Vd/F ([2]; serum): 46 L/kg
k el ([2]; serum): 0.000112 s⁻¹
AUC0–t ratio compound 94 to compound 95 ([2]; serum, 10 mg/kg i.p., mice): 0.53
t0.5λz ([2]; serum, 10 mg/kg i.p., mice): 102.50 min

CN(C)CCNC(=O)c1cc2c(cnn2CC2CCCCC2)cc1Cc1ccc(F)cc1F [Compound 95, 1-(Cyclohexylmethyl)-5-(2,4-difluorobenzyl)-N-(2-(dimethylamino)ethyl)-1H-indazole-6-carboxamide]
RA @ 1000nM [1]: 96%
RA @ 10000nM [1]: 93%
RA @ 1000nM (ABL1-nonphosphorylated): 90%
RA @ 10000nM (ABL1-nonphosphorylated): 90%
RA @ 1000nM (ADCK3): 100%
RA @ 10000nM (ADCK3): 81%
RA @ 1000nM (AKT2): 100%
RA @ 10000nM (AKT2): 88%
RA @ 1000nM (CDK3): 100%
RA @ 10000nM (CDK3): 100%
RA @ 1000nM (CSF1R): 100%
RA @ 10000nM (CSF1R): 79%
RA @ 1000nM (DCAMKL1): 100%
RA @ 10000nM (DCAMKL1): 100%
RA @ 1000nM (EPHA2): 100%
RA @ 10000nM (EPHA2): 100%
RA @ 1000nM (IGF1R): 100%
RA @ 10000nM (IGF1R): 93%
RA @ 1000nM (KIT(D816V)): 96%
RA @ 10000nM (KIT(D816V)): 94%
RA @ 1000nM (LCK): 94%
RA @ 10000nM (LCK): 100%
RA @ 1000nM (MET): 100%
RA @ 10000nM (MET): 100%
RA @ 1000nM (MKNK2): 81%
RA @ 10000nM (MKNK2): 67%
RA @ 1000nM (MLK1): 100%
RA @ 10000nM (MLK1): 90%
RA @ 1000nM (p38β): 84%
RA @ 10000nM (p38β): 18%
RA @ 1000nM (PAK1): 100%
RA @ 10000nM (PAK1): 93%
RA @ 1000nM (PAK2): 100%
RA @ 10000nM (PAK2): 95%
RA @ 1000nM (PAK4): 100%
RA @ 10000nM (PAK4): 88%
RA @ 1000nM (PCTK1): 87%
RA @ 10000nM (PCTK1): 79%
RA @ 1000nM (PDGFRB): 100%
RA @ 10000nM (PDGFRB): 96%
RA @ 1000nM (PIK3C2B): 91%
RA @ 10000nM (PIK3C2B): 91%
RA @ 1000nM (PIM2): 100%
RA @ 10000nM (PIM2): 100%
RA @ 1000nM (RAF1): 100%
RA @ 10000nM (RAF1): 100%
RA @ 1000nM (SRPK3): 92%
RA @ 10000nM (SRPK3): 99%
RA @ 1000nM (TGFBR1): 100%
RA @ 10000nM (TGFBR1): 100%
RA @ 1000nM (TIE2): 90%
RA @ 10000nM (TIE2): 100%
hBChE inhibition in SH-SY5Y human neuroblastoma cell line (hBChE in SH-SY5Y cells): outperformed the control ethopropazine
measured log D at pH 7.4 (Log D determination): 2.77
escape latency, acquisition phase (days 1–6) of MWM (LPS-treated mice): statistically significant decrease in escape latency
latency to NW zone entry (MWM day 7, drug-off) (LPS-treated mice; vs LPS-treated control, p < 0.05): statistically significant difference
AChE inhibition (hAChE): did not inhibit AChE
hAChE RA at 100 μM (hAChE): 53.4% and 53 ± 1% and 53.4 ± 0.8%
Papp (in vitro): 13.2 ×10⁻⁶ cm/s
IC50 (human p38α MAPK; [3]): 191 nM
IC50 (human p38α MAPK; [4]): 191 ± 21 nM
AUC0‑∞ ([2]; brain, 10 mg/kg i.p., mice): 51082.15 ng·min/mL(g)
AUC0–t ([2]; brain, 10 mg/kg i.p., mice): 49811.92 ng·min/mL(g)
t0.5λz ([2]; brain, 10 mg/kg i.p., mice): 89.51 min
Cmax ([2]; brain): 343 ng/g
MRT ([2]; brain): 128 min
Tmax ([2]; brain): 15 min
k el ([2]; brain): 0.000128 s⁻¹
Kp [2]: 0.83
AUC ([2]; serum): 1030 ng·h/mL
AUC(0-t) ([2]; serum): 999 ng·h/mL
CL/F ([2]; serum): 160 mL/min/kg
Cmax ([2]; serum): 617 ng/mL
MRT ([2]; serum): 118 min
Tmax ([2]; serum): 15 min
Vd/F ([2]; serum): 23.4 L/kg
k el ([2]; serum): 0.000115 s⁻¹
t0.5λz ([2]; serum, 10 mg/kg i.p., mice): 100.15 min
